Measurements from US20260258032A1, “TYROSINE KINASE 2 INHIBITORS AND USES THEREOF” (BIOGEN MA INC., priority 2022, published 2026).
Where a name gives a salt, the structure may show the parent alone.

Key:
JH2 domain of human Tyk2 = target: T1, JH2 domain of human Tyk2 (Homo sapiens, UniProt P29597); assay: JH2 biochemical assay (TR-FRET probe displacement); format: binding
T1 construct: 10×His-tagged TYK2 JH2 domain (amino acid 575-876)
Outline: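 A probe-displacement TR-FRET readout: compounds, tested in 3-fold, 10-point dilutions starting at […], compete with 2 nM tracer for 2 nM His-tagged JH2 (residues 575-876) detected by 0.1 nM Tb-anti-His over 60 min. IC50 comes from 4-parameter fits of normalized 520/495 nm ratios.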

[1] = test system: Tyk2 kinase activity on STAT4; assay: pSTAT4 cell assay (MSD, NK92 cells); format: cell-based; conditions: compounds 1 hr
Outline: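 Cells natively expressing STAT4 and Tyk2 (NK92) are serum-starved to lower background phosphorylation, exposed to compound for 1 hr over a 10-point four-fold series starting at 10 μM, and stimulated with 30 ng/mL IL2 for 15 minutes. Phosphorylation is quantified on MSD with anti-STAT4 antibodies.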

[2] = TR-FRET probe displacement, JH2 domain of human Tyk2

T1 sequence (P29597 575-876): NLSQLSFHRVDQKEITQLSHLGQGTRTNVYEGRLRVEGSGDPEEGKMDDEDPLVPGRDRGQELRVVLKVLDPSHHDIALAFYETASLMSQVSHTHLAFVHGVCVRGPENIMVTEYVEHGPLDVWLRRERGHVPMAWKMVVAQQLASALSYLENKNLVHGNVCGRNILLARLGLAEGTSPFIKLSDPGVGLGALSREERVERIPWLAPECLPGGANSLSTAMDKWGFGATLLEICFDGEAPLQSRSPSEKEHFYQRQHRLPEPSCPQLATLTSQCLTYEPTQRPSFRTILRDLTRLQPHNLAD

Row | Structure (SMILES) | IC50 (JH2 domain of human Tyk2; [2]) | IC50 ([1]; then stimulated 15 minutes) | IC50 (JH2 domain of human Tyk2; JH2 biochemical assay) | IC50 ([1]; stimulated 15 minutes)
1 | CC(=O)Nc1cc2c(cn1)C1(CC1)CN2c1cc(C)nc(OC2CCCC2)n1 [Example 379, N-(1′-(2-(cyclopentyloxy)-6-methylpyrimidin-4-yl)-1′,2′-dihydrospiro[cyclopropane-1,3′-pyrrolo[3,2-c]pyridin]-6′-yl)acetamide trifluoroacetate] | 10 to 100 nM | ≥ 1000 nM |  | 
2 | COc1cccc(N2CC3(CC3)c3cnc(NC(C)=O)cc32)n1 [Example 313, N-(1′-(6-methoxypyridin-2-yl)-1′,2′-dihydrospiro[cyclopropane-1,3′-pyrrolo[3,2-c]pyridin]-6′-yl)acetamide] |  |  | 10 to 100 nM | ≥ 1000 nM
3 | CC(=O)Nc1cc2c(cn1)C1(CC1)CN2c1cc(C)nc(N2CC(C#N)C2)n1 [Example 216, N-(1′-(2-(3-cyanoazetidin-1-yl)-6-methylpyrimidin-4-yl)-1′,2′-dihydrospiro[cyclopropane-1,3′-pyrrolo[3,2-c]pyridin]-6′-yl)acetamide] |  |  | 10 to 100 nM | 100 to 1000 nM
4 | CC(=O)Nc1cc2c(cn1)C1(CC1)CN2c1cc(C)nc(C(C)(C)F)n1 [Example 312, N-(1′-(2-(2-fluoropropan-2-yl)-6-methylpyrimidin-4-yl)-1′,2′-dihydrospiro[cyclopropane-1,3′-pyrrolo[3,2-c]pyridin]-6′-yl)acetamide] |  |  | ≤ 10 nM | 10 to 100 nM
5 | CC(=O)Nc1cc2c(cn1)C1(CC1)CN2c1cc(C)cc(OC2CCOC2)n1 (centres unmarked) [Example 339, N-(1′-(4-methyl-6-((tetrahydrofuran-3-yl)oxy)pyridin-2-yl)-1′,2′-dihydrospiro[cyclopropane-1,3′-pyrrolo[3,2-c]pyridin]-6′-yl)acetamide trifluoroacetate] |  |  | 10 to 100 nM | ≥ 1000 nM
6 | CC(=O)Nc1cc2c(cn1)C1(CC1)CN2c1cc(C)cc(N2CC3CCN(C)C3C2)n1 (centres unmarked) [Example 277, N-(1′-(4-methyl-6-(1-methylhexahydropyrrolo[3,4-b]pyrrol-5(1H)-yl)pyridin-2-yl)-1′,2′-dihydrospiro[cyclopropane-1,3′-pyrrolo[3,2-c]pyridin]-6′-yl)acetamide trifluoroacetate] |  |  | 100 to 1000 nM | ≥ 1000 nM
7 | COCC(F)(F)c1cc(C)cc(N2CC3(CC3)c3cnc(NC(C)=O)cc32)n1 [Example 315, N-(1′-(6-(1,1-difluoro-2-methoxyethyl)-4-methylpyridin-2-yl)-1′,2′-dihydrospiro[cyclopropane-1,3′-pyrrolo[3,2-c]pyridin]-6′-yl)acetamide trifluoroacetate] |  |  | 10 to 100 nM | ≥ 1000 nM
8 | CC(=O)Nc1cc2c(cn1)C1(CC1)CN2c1cc(C)cc(C(F)(F)CO)n1 [Example 290, N-(1′-(6-(1,1-difluoro-2-hydroxyethyl)-4-methylpyridin-2-yl)-1′,2′-dihydrospiro[cyclopropane-1,3′-pyrrolo[3,2-c]pyridin]-6′-yl)acetamide] |  |  | ≤ 10 nM | 10 to 100 nM
9 | CO[C@H]1C[C@@H](Nc2cc(N3CC4(CC4)c4cnc(NC(C)=O)cc43)nc(C(C)(F)F)n2)C1 [Example 172, N-(1′-(2-(1,1-difluoroethyl)-6-(((1s,3s)-3-methoxycyclobutyl)amino)pyrimidin-4-yl)-1′,2′-dihydrospiro[cyclopropane-1,3′-pyrrolo[3,2-c]pyridin]-6′-yl)acetamide trifluoroacetate] |  |  | ≤ 10 nM | 10 to 100 nM
10 | CC(=O)Nc1cc2c(cn1)C1(CC1)CN2c1cc(C)nc(C2CC2)n1 [Example 54, N-(1′-(2-cyclopropyl-6-methylpyrimidin-4-yl)-1′,2′-dihydrospiro[cyclopropane-1,3′-pyrrolo[3,2-c]pyridin]-6′-yl)acetamide] |  |  | ≤ 10 nM | 100 to 1000 nM
11 | CC(=O)Nc1cc2c(cn1)C1(CC1)CN2c1cc(C)nc(OC2CC3(COC3)C2)n1 [Example 364, N-(1′-(2-((2-oxaspiro[3.3]heptan-6-yl)oxy)-6-methylpyrimidin-4-yl)-1′,2′-dihydrospiro[cyclopropane-1,3′-pyrrolo[3,2-c]pyridin]-6′-yl)acetamide] |  |  | 100 to 1000 nM | ≥ 1000 nM
12 | CC(=O)Nc1cc2c(cn1)C1(CC1)CN2c1cc(C)cc(OCC23CC(C)(CO2)C3)n1 [Example 349, N-(1′-(4-methyl-6-((4-methyl-2-oxabicyclo[2.1.1]hexan-1-yl)methoxy)pyridin-2-yl)-1′,2′-dihydrospiro[cyclopropane-1,3′-pyrrolo[3,2-c]pyridin]-6′-yl)acetamide] |  |  | 100 to 1000 nM | ≥ 1000 nM
13 | CC(=O)Nc1cc2c(cn1)C1(CC1)CN2c1cc(Oc2cnnn2C)nc(C(C)(F)F)n1 [Example 149, N-(1′-(2-(1,1-difluoroethyl)-6-((1-methyl-1H-1,2,3-triazol-5-yl)oxy)pyrimidin-4-yl)-1′,2′-dihydrospiro[cyclopropane-1,3′-pyrrolo[3,2-c]pyridin]-6′-yl)acetamide trifluorocetate] |  |  | 10 to 100 nM | ≥ 1000 nM
14 | CC(=O)Nc1cc2c(cn1)C1(CC1)CN2c1cc(C)nc(C(C)(C)C)n1 [Example 55, N-(1′-(2-(tert-butyl)-6-methylpyrimidin-4-yl)-1′,2′-dihydrospiro[cyclopropane-1,3′-pyrrolo[3,2-c]pyridin]-6′-yl)acetamide] |  |  | ≤ 10 nM | 100 to 1000 nM
15 | CC(=O)Nc1cc2c(cn1)C1(CC1)CN2c1cc(C)nc(N2CCC(C)(O)C2)n1 (centres unmarked) [Example 236, N-(1′-(2-(3-hydroxy-3-methylpyrrolidin-1-yl)-6-methylpyrimidin-4-yl)-1′,2′-dihydrospiro[cyclopropane-1,3′-pyrrolo[3,2-c]pyridin]-6′-yl)acetamide] |  |  | 10 to 100 nM | ≥ 1000 nM
16 | CC(=O)Nc1cc2c(cn1)C1(CC1)CN2c1cc(C)cc(OCCF)n1 [Example 355, N-(1′-(6-(2-fluoroethoxy)-4-methylpyridin-2-yl)-1′,2′-dihydrospiro[cyclopropane-1,3′-pyrrolo[3,2-c]pyridin]-6′-yl)acetamide trifluoroacetate] |  |  | ≤ 10 nM | 100 to 1000 nM
17 | COC1(CNc2cc(N3CC4(CC4)c4cnc(NC(C)=O)cc43)nc(C(C)(F)F)n2)CC1 [Example 161, N-(1′-(2-(1,1-difluoroethyl)-6-(((1-methoxycyclopropyl)methyl)amino)pyrimidin-4-yl)-1′,2′-dihydrospiro[cyclopropane-1,3′-pyrrolo[3,2-c]pyridin]-6′-yl)acetamide trifluoroacetate] |  |  | ≤ 10 nM | 10 to 100 nM
18 | COC1(COc2cc(C)cc(N3CC4(CC4)c4cnc(NC(C)=O)cc43)n2)CCC1 [Example 351, N-(1′-(6-((1-methoxycyclobutyl)methoxy)-4-methylpyridin-2-yl)-1′,2′-dihydrospiro[cyclopropane-1,3′-pyrrolo[3,2-c]pyridin]-6′-yl)acetamide] |  |  | 100 to 1000 nM | ≥ 1000 nM
19 | CC(=O)Nc1cc2c(cn1)C1(CC1)CN2c1cc(C)nc(-n2cccn2)n1 [Example 100, N-(1′-(6-methyl-2-(1H-pyrazol-1-yl)pyrimidin-4-yl)-1′,2′-dihydrospiro[cyclopropane-1,3′-pyrrolo[3,2-c]pyridin]-6′-yl)acetamide] |  |  | 10 to 100 nM | ≥ 1000 nM
20 | CCOCCc1cc(N2CC3(CC3)c3cnc(NC(C)=O)cc32)nc(C(C)(F)F)n1 [Example 330, N-(1′-(2-(1,1-difluoroethyl)-6-(2-ethoxyethyl)pyrimidin-4-yl)-1′,2′-dihydrospiro[cyclopropane-1,3′-pyrrolo[3,2-c]pyridin]-6′-yl)acetamide trifluoroacetate] |  |  | ≤ 10 nM | 10 to 100 nM
21 | COCCN(C)c1cc(N2CC3(CC3)c3cnc(NC(C)=O)cc32)nc(C(C)(F)F)n1 [Example 50, N-(1′-(2-(1,1-difluoroethyl)-6-((2-methoxyethyl)(methyl)amino)pyrimidin-4-yl)-1′,2′-dihydrospiro[cyclopropane-1,3′-pyrrolo[3,2-c]pyridin]-6′-yl)acetamide] |  |  | ≤ 10 nM | 100 to 1000 nM
22 | CC(=O)Nc1cc2c(cn1)C1(CC1)CN2c1cc(C2CCC2)nc(C(C)(F)F)n1 [Example 24, N-(1′-(6-cyclobutyl-2-(1,1-difluoroethyl)pyrimidin-4-yl)-1′,2′-dihydrospiro[cyclopropane-1,3'-pyrrolo[3,2-c]pyridin]-6'-yl)acetamide] |  |  | ≤ 10 nM | 10 to 100 nM
23 | CC(=O)Nc1cc2c(cn1)C1(CC1)CN2c1cc(-c2cnn(C3CC3)c2)nc(C(C)(F)F)n1 [Example 387, N-(1′-(6-(1-cyclopropyl-1H-pyrazol-4-yl)-2-(1,1-difluoroethyl)pyrimidin-4-yl)-1′,2′-dihydrospiro[cyclopropane-1,3′-pyrrolo[3,2-c]pyridin]-6′-yl)acetamide trifluoroacetate] | ≤ 10 nM | ≤ 10 nM |  | 
24 | CC(=O)Nc1cc2c(cn1)C1(CC1)CN2c1cc(C2CCCO2)nc(C(C)(F)F)n1 (centres unmarked) [Example 26, N-(1′-(2-(1,1-difluoroethyl)-6-(tetrahydrofuran-2-y1)pyrimidin-4-yl)-1′,2′-dihydrospiro[cyclopropane-1,3′-pyrrolo[3,2-c]pyridin]-6′-yl)acetamide] |  |  | ≤ 10 nM | 100 to 1000 nM
25 | CC(=O)Nc1cc2c(cn1)C1(CC1)CN2c1cc(C)cc(N2C[C@H]3CNC[C@H]3C2)n1 [Example 209, N-(1′-(6-((3aR,6aS)-hexahydropyrrolo[3,4-c]pyrrol-2(1H)-yl)-4-methylpyridin-2-yl)-1′,2′-dihydrospiro[cyclopropane-1,3′-pyrrolo[3,2-c]pyridin]-6′-yl)acetamide trifluoroacetate] |  |  | 100 to 1000 nM | ≥ 1000 nM
